Measurements: US20110053947A1, “Arylchalcogenoarylalkyl-substituted imidazolidine-2,4-diones, process for preparation thereof, medicaments comprising these compounds and use thereof” (SANOFI-AVENTIS, priority 2008, published 2011)
Structures can show the parent of a compound that is named as a salt. Where two headings read alike, the source gives them in different places.

What was measured:
[1] = molecular target: T1, cannabinoid 1 receptor (hCB1R) (Homo sapiens, UniProt P21554); assay: In vitro functional assay with recombinant cells (FLIPR), CB1; format: cell-based; details: intracellular Ca2+ change after reference agonist, 20 min preincubation
T1 construct: expressed in transfected cells; host or cells: HEK293
Experimental: (§1) In vitro functional assays with recombinant cells:
(§2) Function-testing assays were performed by means of the FLIPR technique (“Fluorometric Imaging Plate Reader”, Molecular Devices Corp.).
(§3) To this end, ligand-induced changes in the intracellular concentration of Ca^2+ in recombinant HEK293 cells, which expressed both a cannabinoid receptor (CB1 or CB2) and G-protein Galphal6, were determined. For the studies, cells were sown into 96-well microtiter plates (60 000 cells/well) and left to grow overnight. The medium was removed and the cells were incubated in buffer which contained the fluorescent dye Fluo-4. After this loading with dye, the cells were washed, test substance was added dissolved in buffer, the mixture was incubated for 20 minutes, a known cannabinoid receptor agonist as a reference agonist was added in buffer and, finally, the changes in the intracellular Ca^2+ concentration were measured in the FLIPR unit.
Results were presented as the percentage change relative to the control (0%: analogous experiment without test substance and without reference agonist, i.e. only with buffer; 100%: analogous experiment without test substance, but with reference agonist in excess), and used to calculate dose/action curves, and IC50 values were determined.
The values of the functional assay compared to the cannabinoid 1 receptor including illustrative selectivities compared to the cannabinoid 2 receptor can be taken from table 1 which follows.

[2] = molecular target: T2, cannabinoid 2 receptor (hCB2R) (Homo sapiens, UniProt P34972); assay: In vitro functional assay with recombinant cells (FLIPR), CB2; format: cell-based; details: recombinant HEK293 cells expressing CB2 and G-protein; intracellular Ca2+ change after reference agonist, 20 min preincubation; read-out: hCB2R: FLIPR; IC50
T2 construct: expressed in transfected cells; host or cells: HEK293
Experimental: as §1, §2, §3

[3] = molecular target: T3, CHO-K1/cannabinoid CB1 (hCB1R) (Homo sapiens, UniProt P21554); assay: Binding to the CB1 receptor ([3H]-SR141716A displacement); details: [3H]-SR141716A 0.5 nM; Ki from IC50 and Kd by Cheng-Prusoff; average of double determination; read-out: hCB1R; Bindung Ki
T3 construct: expressed in transfected cells; host or cells: CHO-K1
Experimental: Binding to the CB 1 Receptor:
Test compounds: The compounds (3 μl, 10 mM, 100% DMSO), pipetted into 96-well PP microtiter plates, were diluted with 27 μl of 100% DMSO (dimethyl sulfoxide). Proceeding from this solution, further 3-fold dilution steps were undertaken by transferring 10 μl in each case to a new PP microtiter plate and adding a further 20 μl of 100% DMSO. In each case 6 μA of these solutions were transferred into new 96-well PP microtiter plates and made up with 144 μl of assay buffer. The end concentrations ranged from 10 μM to 0.005 μM. Negative control: AM 251, dissolved in assay buffer with 1% DMSO, was added to the dilution series in the microtiter plates as a control. The end concentration was 1 μM. Blank control: assay buffer with 1% DMSO was added to the dilution series of the microtiter plates as a blank control.
Summary of the Assay Parameters:
The values were calculated using the corrected raw data.
The values reported were obtained as average values of a double determination. The IC50 values were calculated from the measurements with the program Xlfit, formula 205. Ki values were obtained from the IC50 and Kd values utilizing the Cheng-Prusoff equation: […]
Literature: Cheng, Y.-C., and Prusoff, W. H. (1973) Biochem. Pharmacol 22, 3099-3108 Results: Ki values of example compounds; Table 2: […]

[4] = recombinant HEK293 cells expressing CB1 and G-protein, read-out: hCB1R: FLIPR, IC50
[5] = hCB1R: FLIPR, IC50, recombinant HEK293 cells expressing CB1 and G-protein

T3 sequence (P21554 whole entry): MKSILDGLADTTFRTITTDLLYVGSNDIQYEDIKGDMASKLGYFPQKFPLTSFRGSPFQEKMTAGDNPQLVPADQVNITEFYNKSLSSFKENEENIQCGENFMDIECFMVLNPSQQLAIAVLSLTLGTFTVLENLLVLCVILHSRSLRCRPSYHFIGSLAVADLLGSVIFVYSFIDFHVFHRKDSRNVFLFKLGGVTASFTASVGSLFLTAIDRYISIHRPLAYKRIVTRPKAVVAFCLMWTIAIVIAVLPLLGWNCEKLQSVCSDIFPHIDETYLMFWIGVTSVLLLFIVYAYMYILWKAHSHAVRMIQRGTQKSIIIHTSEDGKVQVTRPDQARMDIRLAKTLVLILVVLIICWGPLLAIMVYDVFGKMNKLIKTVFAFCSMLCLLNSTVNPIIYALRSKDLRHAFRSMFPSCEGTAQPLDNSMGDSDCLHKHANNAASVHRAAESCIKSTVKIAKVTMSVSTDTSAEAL
T1 sequence (P21554 whole entry): as above
T2 sequence (P34972 whole entry): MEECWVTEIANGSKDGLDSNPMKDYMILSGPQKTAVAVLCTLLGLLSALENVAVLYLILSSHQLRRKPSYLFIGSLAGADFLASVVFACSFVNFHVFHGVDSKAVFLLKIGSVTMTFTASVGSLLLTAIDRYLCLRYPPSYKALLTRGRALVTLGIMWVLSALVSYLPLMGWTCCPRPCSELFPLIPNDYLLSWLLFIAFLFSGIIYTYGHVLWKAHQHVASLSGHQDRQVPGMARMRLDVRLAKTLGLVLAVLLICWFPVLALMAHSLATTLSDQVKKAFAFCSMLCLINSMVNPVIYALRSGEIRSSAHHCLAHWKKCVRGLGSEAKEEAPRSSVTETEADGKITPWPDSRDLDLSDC

CC1(C)C(=O)N(c2ccc(C#N)c(C(F)(F)F)c2)C(=O)N1Cc1ccccc1NC(=O)Nc1ccc(S(=O)(=O)O)cc1 [Example 2, 4-(3-{2-[3-(4-cyano-3-trifluoromethylphenyl)-5,5-dimethyl-2,4-dioxoimidazolidin-1-ylmethyl]phenyl}ureido)benzenesulfonic acid]
IC50 [1, 4]: 220 nM | IC50 [2]: > 10 µM

CC1(C)C(=O)N(c2ccc(C#N)c(C(F)(F)F)c2)C(=O)N1Cc1ccccc1NC(=O)Nc1ccc(C(=O)O)cc1 [Example 4, 4-(3-{2-[3-(4-Cyano-3-trifluoromethylphenyl)-5,5-dimethyl-2,4-dioxo-imidazolidin-1-ylmethyl]phenyl}ureido)benzoic acid]
IC50 [1, 4]: 109 nM | IC50 [2]: > 10 µM

CC1(C)C(=O)N(c2ccc(C#N)c(C(F)(F)F)c2)C(=O)N1Cc1ccccc1NC(=O)Nc1ccc(C#N)cc1 [Example 6, 1-(4-cyanophenyl)-3-{2-[3-(4-cyano-3-trifluoromethylphenyl)-5,5-dimethyl-2,4-dioxoimidazolidin-1-ylmethyl]phenyl}urea]
IC50 [1, 5]: 11 nM | IC50 [2]: > 10 µM

CC1(C)C(=O)N(c2ccc(C#N)c(C(F)(F)F)c2)C(=O)N1Cc1ccccc1NC(=O)Nc1ccc(F)cc1F [Example 7, 1-{2-[3-(4-cyano-3-trifluoromethylphenyl)-5,5-dimethyl-2,4-dioxoimidazolidin-1-ylmethyl]phenyl}-3-(2,4-difluorophenyl)urea]
Ki [3]: 73 nM

CC1(C)C(=O)N(c2ccc(C#N)c(C(F)(F)F)c2)C(=O)N1Cc1ccccc1NC(=O)Nc1cccc(C#N)c1 [Example 8, 1-(3-cyanophenyl)-3-{2-[3-(4-cyano-3-trifluoromethylphenyl)-5,5-dimethyl-2,4-dioxoimidazolidin-1-ylmethyl]phenyl}urea]
IC50 [1, 5]: 35 nM | IC50 [2]: > 10 µM

CC1(C)C(=O)N(c2ccc(C#N)c(C(F)(F)F)c2)C(=O)N1Cc1ccccc1NC(=O)Nc1ccccc1 [Example 9, 1-{2-[3-(4-cyano-3-trifluoromethylphenyl)-5,5-dimethyl-2,4-dioxoimidazolidin-1-ylmethyl]phenyl}-3-phenylurea]
Ki [3]: 32 nM

C[S+]([O-])c1ccc(NC(=O)Nc2ccccc2CN2C(=O)N(c3ccc(C#N)c(C(F)(F)F)c3)C(=O)C2(C)C)cc1 (stereo not shown) [Example 12, 1-{2-[3-(4-cyano-3-trifluoromethylphenyl)-5,5-dimethyl-2,4-dioxoimidazolidin-1-ylmethyl]phenyl}-3-(4-methanesulfinylphenyl)urea]
Ki [3]: 11 nM

CC1(C)C(=O)N(c2ccc(C#N)c(C(F)(F)F)c2)C(=O)N1Cc1ccccc1NC(=O)Nc1ccc(S(C)(=O)=O)cc1 [Example 13, 1-{2-[3-(4-cyano-3-trifluoromethylphenyl)-5,5-dimethyl-2,4-dioxoimidazolidin-1-ylmethyl]phenyl}-3-(4-methanesulfonylphenyl)urea]
Ki [3]: 7 nM

CC1(C)C(=O)N(c2ccc(C#N)c(C(F)(F)F)c2)C(=O)N1Cc1ccccc1NS(=O)(=O)Cc1ccc(F)cc1F [Example 15, N-{2-[3-(4-cyano-3-trifluoromethylphenyl)-5,5-dimethyl-2,4-dioxoimidazolidin-1-ylmethyl]phenyl}-C-(2,4-difluorophenyl)methanesulfonamide]
Ki [3]: 58 nM

CC1(C)C(=O)N(c2ccc(C#N)c(C(F)(F)F)c2)C(=O)N1Cc1ccc(F)cc1NC(=O)Nc1ccc(C(=O)O)cc1 [Example 18, 4-(3-{2-[3-(4-Cyano-3-trifluoromethylphenyl)-5,5-dimethyl-2,4-dioxoimidazolidin-1-ylmethyl]-5-fluorophenyl}ureido)benzoic acid]
Ki [3]: 68 nM

CC1(C)C(=O)N(c2ccc(C#N)c(C(F)(F)F)c2)C(=O)N1Cc1ccc(F)cc1NC(=O)Nc1cc(Cl)nc(Cl)c1 [Example 21, 1-{2-[3-(4-cyano-3-trifluoromethylphenyl)-5,5-dimethyl-2,4-dioxoimidazolidin-1-ylmethyl]-5-fluorophenyl}-3-(2,6-dichloropyridin-4-yl)urea]
Ki [3]: 34 nM

CC1(C)C(=O)N(c2ccc(F)c(C(F)(F)F)c2)C(=O)N1Cc1ccc(F)cc1NC(=O)Nc1ccc(N)cc1 [Example 23, 1-(4-Aminophenyl)-3-{5-fluoro-2-[3-(4-fluoro-3-trifluoromethylphenyl)-5,5-dimethyl-2,4-dioxoimidazolidin-1-ylmethyl]phenyl}urea hydrochloride]
Ki [3]: 17 nM

CC1(C)C(=O)N(c2ccc(F)c(C(F)(F)F)c2)C(=O)N1Cc1ccc(F)cc1NC(=O)Nc1ccc(S(N)(=O)=O)cc1 [Example 24, 4-(3-{5-fluoro-2-[3-(4-fluoro-3-trifluoromethylphenyl)-5,5-dimethyl-2,4-dioxoimidazolidin-1-ylmethyl]phenyl}ureido)benzenesulfonamide]
Ki [3]: 9 nM

CCOP(=O)(OCC)c1ccc(NC(=O)Nc2cc(F)ccc2CN2C(=O)N(c3ccc(F)c(C(F)(F)F)c3)C(=O)C2(C)C)cc1 [Example 32, Diethyl [4-(3-{5-fluoro-2-[3-(4-fluoro-3-trifluoromethylphenyl)-5,5-dimethyl-2,4-dioxoimidazolidin-1-ylmethyl]phenyl}ureido)phenyl]phosphonate]
Ki [3]: 40 nM

COC(=O)c1ccc(NC(=O)Nc2cc(F)ccc2CN2C(=O)N(c3ccc(C#N)c(C(F)(F)F)c3)C(=O)C2(C)C)nc1 [Example 42, methyl 6-(3-{2-[3-(4-cyano-3-trifluoromethylphenyl)-5,5-dimethyl-2,4-dioxoimidazolidin-1-ylmethyl]-5-fluorophenyl}ureido)nicotinate]
Ki [3]: 35 nM

CC1(C)C(=O)N(c2ccc(C#N)c(C(F)(F)F)c2)C(=O)N1Cc1ccc(F)cc1NC(=O)Nc1ccnc(O)c1 [Example 43, 1-{2-[3-(4-cyano-3-trifluoromethylphenyl)-5,5-dimethyl-2,4-dioxoimidazolidin-1-ylmethyl]-5-fluorophenyl}-3-(2-hydroxypyridin-4-yl)urea]
IC50 [1, 4]: 27 nM | Ki [3]: 17 nM

CCS(=O)(=O)c1ccc(NC(=O)Nc2cc(F)ccc2CN2C(=O)N(c3ccc(C#N)c(C4CC4)c3)C(=O)C2(C)C)cc1 [Example 45, 1-{2-[3-(4-Cyano-3-cyclopropylphenyl)-5,5-dimethyl-2,4-dioxoimidazolidin-1-ylmethyl]-5-fluorophenyl}-3-(4-ethanesulfonylphenyl)urea]
Ki [3]: 6 nM

COC(=O)CS(=O)(=O)c1ccc(NC(=O)Nc2cc(F)ccc2CN2C(=O)N(c3ccc(C#N)c(C4CC4)c3)C(=O)C2(C)C)cc1 [Example 46, Methyl [4-(3-{2-[3-(4-cyano-3-cyclopropylphenyl)-5,5-dimethyl-2,4-dioxoimidazolidin-1-ylmethyl]-5-fluorophenyl}ureido)benzenesulfonyl]acetate]
Ki [3]: 7 nM

COC(=O)CSc1ccc(NC(=O)Nc2cc(F)ccc2CN2C(=O)N(c3ccc(C#N)c(C(F)(F)F)c3)C(=O)C2(C)C)cc1 [Example 49]
IC50 [1, 4]: 2 nM | Ki [3]: 11 nM

COC(=O)c1ccc(NC(=O)Nc2cc(F)ccc2CN2C(=O)N(c3ccc(F)c(C(F)(F)F)c3)C(=O)C2(C)C)cc1 [Example 59, methyl 4-(3-{5-fluoro-2-[3-(4-fluoro-3-trifluoromethylphenyl)-5,5-dimethyl-2,4-dioxoimidazolidin-1-ylmethyl]phenyl}ureido)benzoate]
Ki [3]: 29 nM

CC1(C)C(=O)N(c2ccc(F)c(C(F)(F)F)c2)C(=O)N1Cc1ccc(Cl)cc1NC(=O)Nc1ccc(S(N)(=O)=O)cc1 [Example 69, 4-(3-{5-chloro-2-[3-(4-fluoro-3-trifluoromethylphenyl)-5,5-dimethyl-2,4-dioxoimidazolidin-1-ylmethyl]phenyl}ureido)benzenesulfonamide]
IC50 [1, 4]: 11 nM

COc1ccc(CN2C(=O)N(c3ccc(F)c(C(F)(F)F)c3)C(=O)C2(C)C)c(NC(=O)Nc2ccc(S(N)(=O)=O)cc2)c1 [Example 70, 4-(3-{2-[3-(4-fluoro-3-trifluoromethylphenyl)-5,5-dimethyl-2,4-dioxoimidazolidin-1-ylmethyl]-5-methoxyphenyl}ureido)benzenesulfonamide]
IC50 [1, 4]: 14 nM
